In patent US10654837B2, “Sulphamoylaryl derivatives and use thereof as medicaments for the treatment of liver fibrosis” (Janssen Pharmaceutica NV, priority 2017, dated 2020):

biological target: T1, 5HTR2B (Homo sapiens, UniProt P41595); test: 5HTR2B antagonist activity, calcium mobilization assay in human Maverick/293 cells (serotonin as agonist); format: cell-based; details: intracellular calcium, emission 525 nm, read-out: Ca assay IC50
T1 construct: host or cells: human Maverick/293 cells
In short: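 Calcium mobilization read over 80 s at ex 485/em 525 nm after serotonin addition. Before that, 2 h serum-free starvation, 50 min dye loading at 37 °C, and 15-30 min antagonist exposure. IC50 from sigmoidal fit of peak % inhibition.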

T1 sequence (P41595 whole entry): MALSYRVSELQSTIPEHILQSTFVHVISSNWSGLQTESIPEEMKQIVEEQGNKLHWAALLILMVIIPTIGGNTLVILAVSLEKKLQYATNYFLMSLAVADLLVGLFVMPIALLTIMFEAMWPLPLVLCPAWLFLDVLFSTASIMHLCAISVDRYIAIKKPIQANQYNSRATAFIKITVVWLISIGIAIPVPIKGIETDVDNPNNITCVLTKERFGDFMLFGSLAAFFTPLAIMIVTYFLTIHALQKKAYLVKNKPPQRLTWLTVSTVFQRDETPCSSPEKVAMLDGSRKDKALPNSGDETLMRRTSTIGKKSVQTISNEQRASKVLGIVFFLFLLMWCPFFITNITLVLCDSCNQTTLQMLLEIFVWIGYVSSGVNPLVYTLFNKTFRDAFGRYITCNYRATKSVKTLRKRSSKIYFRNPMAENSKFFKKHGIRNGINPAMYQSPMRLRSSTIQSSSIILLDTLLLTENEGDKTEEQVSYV

Compound | IC50
COc1ccc(S(=O)(=O)N[C@H](C)CO)cc1C(=O)Nc1ccc(F)cc1 [Compound 52b, (R)—N-(4-fluorophenyl)-5-(N-(1-hydroxypropan-2-yl)sulfamoyl)-2-methoxybenzamide] | 4.5 nM
COc1ccc(S(=O)(=O)N[C@H]2CC[C@@H](O)CC2)cc1C(=O)Nc1ccc(F)cc1 [Compound 53, N-(4-Fluorophenyl)-5-(N-((cis)-4-hydroxycyclohexyl)sulfamoyl)-2-methoxybenzamide] | 0.3 nM
COc1ccc(S(=O)(=O)N[C@@H](C)CO)cc1C(=O)Nc1ccccc1Cl [Compound 55a, (S)—N-(2-Chlorophenyl)-5-(N-(1-hydroxypropan-2-yl)sulfamoyl)-2-methoxy benzamide] | 0.3 nM
COc1ccc(S(=O)(=O)N[C@H](C)CO)cc1C(=O)Nc1ccccc1Cl [Compound 55b, (R)—N-(2-Chlorophenyl)-5-(N-(1-hydroxypropan-2-yl)sulfamoyl)-2-methoxy benzamide] | 0.1 nM
COc1ccc(S(=O)(=O)NC2CC[C@H](O)C2)cc1C(=O)Nc1ccccc1Cl (stereo partly drawn) [Compound 57a] | 0.2 nM
COc1ccc(S(=O)(=O)NC2CC[C@@H](O)C2)cc1C(=O)Nc1ccccc1Cl (stereo partly drawn) [Compound 57b, N-(2-Chlorophenyl)-5-(N-((cis)-3-hydroxycyclopentyl)sulfamoyl)-2-methoxy benzamide] | 0.2 nM
COc1ccc(S(=O)(=O)NC2(C)COC2)cc1C(=O)Nc1ccccc1Cl [Compound 58, N-(2-Chlorophenyl)-2-methoxy-5-(N-(3-methyloxetan-3-yl)sulfamoyl) benzamide] | 0.2 nM
COc1ccc(S(=O)(=O)N[C@@H](C)C(N)=O)cc1C(=O)Nc1ccccc1Cl [Compound 59a] | 0.2 nM
COc1ccc(S(=O)(=O)N[C@H]2CCC[C@H]2O)cc1C(=O)Nc1ccccc1Cl [Compound 61a, N-(2-Chlorophenyl)-5-(N-((1s,2r)-2-hydroxycyclopentyl)sulfamoyl)-2-methoxy benzamide] | 0.1 nM
COc1ccc(S(=O)(=O)NC2CCC[C@@H]2O)cc1C(=O)Nc1ccccc1Cl (stereo partly drawn) [Compound 61b, N-(2-Chlorophenyl)-5-(N-((trans)-2-hydroxycyclopentyl)sulfamoyl)-2-methoxy benzamide] | 0.2 nM
COc1ccc(S(=O)(=O)NC2CCC[C@H]2O)cc1C(=O)Nc1ccccc1Cl (stereo partly drawn) [Compound 61c, N-(2-chlorophenyl)-5-(N-((trans)-2-hydroxycyclopentyl)sulfamoyl)-2-methoxy benzamide] | 0.2 nM
COc1ccc(S(=O)(=O)NC2COC2)cc1C(=O)Nc1ccccc1Cl [Compound 62, N-(2-Chlorophenyl)-2-methoxy-5-(N-(oxetan-3-yl)sulfamoyl)benzamide] | 0.1 nM
COc1ccc(S(=O)(=O)NC2CCC2)cc1C(=O)Nc1ccc(F)c(C)c1 [Compound 63, 5-(N-Cyclobutylsulfamoyl)-N-(4-fluoro-3-methylphenyl)-2-methoxybenzamide] | 1.3 nM
COc1ccc(S(=O)(=O)N[C@H]2CCOC2)cc1C(=O)Nc1nccs1 [Compound 64, (S)-2-Methoxy-5-(N-(tetrahydrofuran-3-yl)sulfamoyl)-N-(thiazol-2-yl) benzamide] | 65 nM
COc1ccc(S(=O)(=O)N[C@H]2CCOC2)cc1C(=O)Nc1ccc(F)cc1F [Compound 65, (S)—N-(2,4-Difluorophenyl)-2-methoxy-5-(N-(tetrahydrofuran-3-yl)sulfamoyl) benzamide] | 0.34 nM
COc1ccc(S(=O)(=O)N[C@H]2CCOC2)cc1C(=O)Nc1ccc(F)cc1Cl [Compound 66, (S)—N-(2-Chloro-4-fluorophenyl)-2-methoxy-5-(N-(tetrahydrofuran-3-yl)sulfamoyl)benzamide] | 0.2 nM
COc1ccc(S(=O)(=O)N[C@H]2CCOC2)cc1C(=O)Nc1cc(F)cc(F)c1 [Compound 67, (S)—N-(3,5-Difluorophenyl)-2-methoxy-5-(N-(tetrahydrofuran-3-yl)sulfamoyl)benzamide] | 8.8 nM
COc1ccc(S(=O)(=O)N[C@H]2CCOC2)cc1C(=O)Nc1cc(F)cc(Cl)c1 [Compound 68, (S)—N-(3-Chloro-5-fluorophenyl)-2-methoxy-5-(N-(tetrahydrofuran-3-yl)sulfamoyl)benzamide] | 2.9 nM
COc1ccc(S(=O)(=O)N[C@H]2CCOC2)cc1C(=O)Nc1cc(F)ccc1F [Compound 69, (S)—N-(2,5-Difluorophenyl)-2-methoxy-5-(N-(tetrahydrofuran-3-yl)sulfamoyl) benzamide] | 1.5 nM
COc1ccc(S(=O)(=O)N[C@H]2CCOC2)cc1C(=O)Nc1cc(F)ccc1Cl [Compound 70, (S)—N-(2-Chloro-5-fluorophenyl)-2-methoxy-5-(N-(tetrahydrofuran-3-yl)sulfamoyl)benzamide] | 0.3 nM
COc1ccc(S(=O)(=O)N[C@H]2CCOC2)cc1C(=O)Nc1cc(Cl)ccc1Cl [Compound 71, (S)—N-(2,5-Dichlorophenyl)-2-methoxy-5-(N-(tetrahydrofuran-3-yl)sulfamoyl)benzamide] | 1.6 nM
COc1ccc(S(=O)(=O)N[C@H]2CCOC2)cc1C(=O)Nc1ccc(Cl)c(Cl)c1 [Compound 72, (S)—N-(3,4-Dichlorophenyl)-2-methoxy-5-(N-(tetrahydrofuran-3-yl)sulfamoyl) benzamide] | 5.1 nM
COc1ccc(S(=O)(=O)N[C@H]2CCOC2)cc1C(=O)Nc1ccc(C#N)cc1F [Compound 73, (S)—N-(4-Cyano-2-fluorophenyl)-2-methoxy-5-(N-(tetrahydrofuran-3-yl)sulfamoyl)benzamide] | 5.5 nM
COc1ccc(S(=O)(=O)N[C@H]2CCOC2)cc1C(=O)Nc1cc(F)c(F)cc1F [Compound 74, (S)-2-Methoxy-5-(N-(tetrahydrofuran-3-yl)sulfamoyl)-N-(2,4,5-trifluorophenyl) benzamide] | 0.8 nM
COc1ccc(S(=O)(=O)N[C@H]2CCOC2)cc1C(=O)Nc1cc(Cl)c(F)cc1F [Compound 75, (S)—N-(5-Chloro-2,4-difluorophenyl)-2-methoxy-5-(N-(tetrahydrofuran-3-yl)sulfamoyl)benzamide] | 9.1 nM
COc1ccc(S(=O)(=O)N[C@H]2CCOC2)cc1C(=O)Nc1c(F)cc(F)cc1F [Compound 76, (S)-2-Methoxy-5-(N-(tetrahydrofuran-3-yl)sulfamoyl)-N-(2,4,6-trifluorophenyl) benzamide] | 3.1 nM
COc1ccc(S(=O)(=O)N[C@H]2CCOC2)cc1C(=O)Nc1ccc(F)c(Cl)c1F [Compound 77, (S)—N-(3-Chloro-2,4-difluorophenyl)-2-methoxy-5-(N-(tetrahydrofuran-3-yl)sulfamoyl)benzamide] | 5.3 nM
COc1ccc(S(=O)(=O)N[C@H]2CCOC2)cc1C(=O)Nc1c(F)cc(F)cc1Cl [Compound 78, (S)—N-(2-Chloro-4,6-difluorophenyl)-2-methoxy-5-(N-(tetrahydrofuran-3-yl)sulfamoyl)benzamide] | 2.4 nM
COc1ccc(S(=O)(=O)N[C@H]2CCOC2)cc1C(=O)Nc1ccn(C)n1 [Compound 79, (S)-2-Methoxy-N-(1-methyl-1H-pyrazol-3-yl)-5-(N-(tetrahydrofuran-3-yl)sulfamoyl)benzamide] | 98 nM
COc1ccc(S(=O)(=O)N[C@H]2CCOC2)cc1C(=O)Nc1c(F)cc(C#N)cc1F [Compound 80, (S)—N-(4-cyano-2,6-difluorophenyl)-2-methoxy-5-(N-(tetrahydrofuran-3-yl)sulfamoyl)benzamide] | 574 nM
